Experimental data taken from publication PMC5538626, “Structural and functional analysis of the GABARAP interaction motif (GIM)” (EMBO Reports, 2017).
Ends that are not written are not given here.

Experiments:
LC3B K30R = target: T1, LC3B K30R (Homo sapiens, UniProt Q9GZQ8, K30R); assay: ITC titration of PLEKHM1-LIR peptide into LC3B K30R mutant; format: binding
T1 construct: modified Ub-leader (ubiquitin fusion leader) (N); made in house; host or cells: E. coli NEB T7 Express
Procedure: The chimeric constructs were expressed as a His‐tag fusion protein in E. coli BL21(DE3) cells. The cells were induced with 0.3 mM IPTG at OD600 0.6 for 16 h at 26°C. The cell pellets were lysed using mechanical sonication in lysis buffer (20 mM Tris–HCl pH 9.0, 100 mM NaCl, 10 mM imidazole, supplemented with 0.1% Triton X‐100). The proteins were purified using Ni‐NTA beads (GE Healthcare) and the His‐tag was cleaved using thrombin (Invitrogen) at room temperature for 16 h. The last step was gel filtration chromatography using a Superdex S200/300 GL column (GE Healthcare). The proteins were concentrated using spin concentrators (Vivaspin). For ITC and NMR studies, the non‐labelled and stable isotopes labelled LC3 and GABARAP proteins were obtained based on the protocols described elsewhere 30, 39. Here, E. coli NEB T7 Express culture transformed with corresponding plasmids were grown till OD600 nm = 1.0 and protein expression was induced with 0.2 mM IPTG. The cultures were incubated at 25°C for 8–12 h before cell harvesting. Isolation and purification procedures were similar to those reported in Ref. 22, 40. Before experiments, all proteins and peptides were equilibrated with a buffer containing 50 mM Na2HPO4, 100 mM NaCl at pH 7.0, and supplied with 5 mM protease inhibitor cocktail.
The protocol for preparation of non‐labelled and ^13C,^15N‐labelled PLEKHM1‐LIR peptide was slightly modified to achieve highest yield of the peptide. The 50 ml M9 culture was inoculated with NEB T7 cell transformed with pET39_Ub63‐PLEKHM1‐LIR plasmid and grown overnight at 37°. The collected cells were resuspended in 2 l of either LB or M9 media contained 1.5 g ^15N‐labelled NH4Cl and 3.0 g of ^13C‐labelled glucose. The cultures were grown at 37° till A(600 nm) = 0.9 and supplied with 1 mM of IPTG to induce Ub63‐PLEKHM1‐LIR overexpression (3 h at 37°). After that cells were harvested by centrifugation, re‐suspended in buffer contained 50 mM Tris–HCl pH = 7.9, 200 mM NaCl, 5% glycerol, 0.1 mg/ml DNase A and 4 mM protease inhibitor cocktail. After cell lysis by French press, debris was removed by centrifugation and clear supernatant was applied onto the column contained Ni‐NTA Sepharose equilibrated with the loading buffer (50 mM Tris–HCl pH = 7.9, 250 mM NaCl, 1% glycerol and 20 mM imidazole). Elution was performed with 400 mM imidazole in the same buffer. An aliquot of pure Ub63‐PLEKHM1‐LIR fractions was further purified by gel filtration on Superdex75 26 × 60 column for control ITC and analytical size exclusion chromatography experiments, remaining fusion protein was processed with the TEV‐protease and PLEKHM1‐LIR peptide was purified to 95% purity by reverse Ni‐NTA chromatography and followed gel filtration on Superdex75 26 × 60 column. Peak maximum of peptide was detected at […] (void volume 115 ml). Pure peptide was concentrated in Amicon concentrators with cut‐off of 3 kDa (> 95% retention).
All titration experiments were performed at 25°C using a VP‐ITC microcalorimeter (Malvern Instruments Ltd, UK). The ITC data were analysed with the ITC‐Origin 7.0 software with a “one‐site” binding model. The peptides at concentrations of 0.4 mM were titrated into 0.020 mM LC3 and GABARAP proteins in 26 steps. The protein and peptide concentrations were calculated from the UV absorption at 280 nm by NanoDrop spectrophotometer (Thermo Fisher Scientific, DE, USA).

[1] = system: LC3 subfamily proteins (LC3A, LC3B); assay: NMR titration of 15N-labelled LC3 proteins with PLEKHM1-LIR peptide; format: binding, human; conditions: 298 K, 0.18 mM 15N-labelled protein, up to four times peptide excess
Procedure: (§1) All NMR experiments were performed at 298 K on Bruker Avance spectrometers operating at proton frequencies of 500, 600 and 700 MHz. Titration experiments were performed with a 0.18 mM ^15N‐labelled LC3 and GABARAP protein samples to which the non‐labelled PLEKHM1‐LIR peptide was added stepwise until four times excess to LC3 proteins or two times excess to the GABARAP proteins. Backbone HN resonances for selected mATG8 proteins in complex with the PLEKHM1‐LIR peptide were assigned using [^15N‐^1H]‐TROSY versions of 3D HNCACB experiment. For assignment of PLEKHM1‐LIR peptide backbone HN resonances in complexes with the LC3 and GABARAP proteins, [^15N‐^1H]‐TROSY versions of 3D HNCACB experiment and hCcconh‐TOCSY experiment were used.

[2] = system: GABARAP subfamily proteins (GABARAP-L1, GABARAP-L2); assay: NMR titration of 15N-labelled GABARAP proteins with PLEKHM1-LIR peptide; format: binding, human; conditions: 298 K, 0.18 mM 15N-labelled protein, up to two times peptide excess
Procedure: as §1

[3] = system: endogenous PLEKHM1:GABARAP complex; assay: Peptide competition in immunoprecipitation of endogenous PLEKHM1; conditions: Plekhm1 +/+ MEF lysate, 50 μM peptide, cells treated 4 h KU-0063794 (10 μM) + chloroquine (20 μM); Fig 2D

Question: GAMGPQQEDEWVNVQYPD [PLEKHM1‐LIR WT] was tested. Which “-T*DS” value (LC3B K30R; 25°C, pH 7.0, LC3B K30R) did it give?
Answer: -1.08 kcal/mol

Question: What about the “DG (ΔG)” value (LC3B K30R; 25°C, pH 7.0, LC3B K30R) of the same sequence?
Answer: -7.20 kcal/mol

Question: And the “DH (ΔH)” value (LC3B K30R; 25°C, pH 7.0, LC3B K30R)?
Answer: -6.1 ± 0.2 kcal/mol

Question: And the “DS (ΔS)” value (LC3B K30R; 25°C, pH 7.0, LC3B K30R)?
Answer: +3.61 cal mol-1 K-1

Question: And the KA (LC3B K30R; 25°C, pH 7.0, LC3B K30R)?
Answer: 0.19±0.01 *10^6 M-1

Question: What about the N (LC3B K30R; 25°C, pH 7.0, LC3B K30R) of the same sequence?
Answer: 1.11±0.02

Question: What about the “increase in favorable binding enthalpy vs wild type LC3B” value (LC3B K30R; within experimental error) of the same sequence?
Answer: 0.3 kcal/mol

Question: And the “exchange behaviour upon titration, LC3 subfamily” value [1]?
Answer: intermediate exchange

Question: And the “exchange behaviour upon titration, GABARAP subfamily” value [2]?
Answer: slow exchange

Question: What about the “effect on endogenous PLEKHM1:GABARAP interaction” value [3] of the same sequence?
Answer: blocked the interaction
